≈ marks a conversion by molar mass, not a printed value.
Tests used:
[1] = test system: Providencia stuartii CMX 640; assay: Antibacterial activity (MIC), agar dilution method; assay type: cell-based; settings: unit assumed
Procedure: (§1) Compounds of the invention were next tested for antibacterial potency, such activity being regarded as an undesirable side effect if prokinetic therapy. Assays were conducted using methodology well-known in the art (the agar dilution method).

[2] = test system: Streptococcus pyogenes EES61; assay: Antibacterial activity (MIC), agar dilution method; assay type: cell-based; settings: unit assumed
Procedure: as §1

[3] = test system: Micrococcus luteus ATCC 9341; assay: Antibacterial activity (MIC), agar dilution method; assay type: cell-based; settings: unit assumed
Procedure: as §1

Pseudomonas cepacia 2961 = assay: Antibacterial activity (MIC), agar dilution method; assay type: cell-based; settings: unit assumed
Procedure: as §1

[4] = test system: Streptococcus bovis A5169; assay: Antibacterial activity (MIC), agar dilution method; assay type: cell-based; settings: unit assumed
Procedure: as §1

[5] = test system: Staphylococcus aureus ATCC 6538P; assay: Antibacterial activity (MIC), agar dilution method; assay type: cell-based; settings: unit assumed
Procedure: as §1

[6] = test system: Pseudomonas aeruginosa DPHD-2862; assay: Antibacterial activity (MIC), agar dilution method; assay type: cell-based; settings: unit assumed
Procedure: as §1

[7] = test system: Enterococcus faecium ATCC 8043; assay: Antibacterial activity (MIC), agar dilution method; assay type: cell-based; settings: unit assumed
Procedure: as §1

[8] = test system: Pseudomonas aeruginosa K799/61; assay: Antibacterial activity (MIC), agar dilution method; assay type: cell-based; settings: unit assumed
Procedure: as §1

[9] = test system: Staphylococcus aureus NCTC 10649; assay: Antibacterial activity (MIC), agar dilution method; assay type: cell-based; settings: unit assumed
Procedure: as §1

[10] = test system: Enterobacter aerogenes ATCC 13048; assay: Antibacterial activity (MIC), agar dilution method; assay type: cell-based; settings: unit assumed
Procedure: as §1

[11] = test system: Pseudomonas aeruginosa A5007; assay: Antibacterial activity (MIC), agar dilution method; assay type: cell-based; settings: unit assumed
Procedure: as §1

[12] = test system: Pseudomonas aeruginosa K799/WT; assay: Antibacterial activity (MIC), agar dilution method; assay type: cell-based; settings: unit assumed
Procedure: as §1

[13] = test system: Streptococcus pyogenes 2548 INDUC; assay: Antibacterial activity (MIC), agar dilution method; assay type: cell-based; settings: unit assumed
Procedure: as §1

Escherichia coli SS = assay: Antibacterial activity (MIC), agar dilution method; assay type: cell-based; settings: unit assumed
Procedure: as §1

[14] = test system: Streptococcus agalactiae CMX 508; assay: Antibacterial activity (MIC), agar dilution method; assay type: cell-based; settings: unit assumed
Procedure: as §1

[15] = test system: Micrococcus luteus ATCC 4698; assay: Antibacterial activity (MIC), agar dilution method; assay type: cell-based; settings: unit assumed
Procedure: as §1

Escherichia coli KNK 437 = assay: Antibacterial activity (MIC), agar dilution method; assay type: cell-based; settings: unit assumed
Procedure: as §1

[16] = test system: Acinetobacter calcoaceticus CMX 669; assay: Antibacterial activity (MIC), agar dilution method; assay type: cell-based; settings: unit assumed
Procedure: as §1

[17] = test system: Staphylococcus aureus 1775; assay: Antibacterial activity (MIC), agar dilution method; assay type: cell-based; settings: unit assumed
Procedure: as §1

[18] = test system: Staphylococcus aureus 642A; assay: Antibacterial activity (MIC), agar dilution method; assay type: cell-based; settings: unit assumed
Procedure: as §1

[19] = test system: Streptococcus pyogenes 930 CONST; assay: Antibacterial activity (MIC), agar dilution method; assay type: cell-based; settings: unit assumed
Procedure: as §1

Escherichia coli H560 = assay: Antibacterial activity (MIC), agar dilution method; assay type: cell-based; settings: unit assumed
Procedure: as §1

[20] = test system: Pseudomonas aeruginosa BMH10; assay: Antibacterial activity (MIC), agar dilution method; assay type: cell-based; settings: unit assumed
Procedure: as §1

[21] = test system: Staphylococcus aureus CMX 553; assay: Antibacterial activity (MIC), agar dilution method; assay type: cell-based; settings: unit assumed
Procedure: as §1

Escherichia coli DC-2 = assay: Antibacterial activity (MIC), agar dilution method; assay type: cell-based; settings: unit assumed
Procedure: as §1

[22] = test system: Pseudomonas aeruginosa DPHD-5263; assay: Antibacterial activity (MIC), agar dilution method; assay type: cell-based; settings: unit assumed
Procedure: as §1

[23] = test system: Staphylococcus aureus A5177; assay: Antibacterial activity (MIC), agar dilution method; assay type: cell-based; settings: unit assumed
Procedure: as §1

Escherichia coli JUHL = assay: Antibacterial activity (MIC), agar dilution method; assay type: cell-based; settings: unit assumed
Procedure: as §1

[24] = test system: Klebsiella pneumoniae ATCC 8045; assay: Antibacterial activity (MIC), agar dilution method; assay type: cell-based; settings: unit assumed
Procedure: as §1

[25] = test system: Staphylococcus epidermidis 3519; assay: Antibacterial activity (MIC), agar dilution method; assay type: cell-based; settings: unit assumed
Procedure: as §1

[26] = test system: Staphylococcus aureus A-5278; assay: Antibacterial activity (MIC), agar dilution method; assay type: cell-based; settings: unit assumed
Procedure: as §1

[27] = test system: smooth muscle strips isolated from rabbit small intestine; assay: Induction of in vitro rabbit duodenal smooth muscle contraction; settings: for EC50: Oryctolagus cuniculus, rabbit duodenum longitudinal muscle, 37° C., pH 7.5, read-out: pED50 (negative logarithm of the concentration producing half of the maximal contraction) (converted); for Relative Potency: relative to erythromycin A = 1.0
Procedure: The compounds of the present invention were tested in vitro for their ability to induce contraction of smooth muscle strips isolated from rabbit small intestine using the following procedure:
Rabbits were sacrificed and 15 cm of duodenum was rapidly removed and placed in ice-cold modified Ringers solution (120 mM sodium chloride, 25 mM sodium bicarbonate, 4.7 mM potassium chloride, 1.25 mM calcium chloride, 1.20 mM magnesium sulfate and 5.6 mM glucose). The longitudinal muscle layer was separated from the circular muscle by blunt dissection and cut into strips of 10×20 mm. Double-folded strips were vertically suspended between two hooks in 10 mL tissue baths with a mechanical preload of 1 g. The upper hook was connected to an […] force transducer, and its displacement was recorded on a Grass polygraph. The tissue baths contained modified Ringers solution at 37° C. and were continuously gassed with 95% oxygen/5% carbon dioxide in order to maintain the pH at 7.5.
After a stabilization period of at least 60 minutes, a contractility dose-response series was performed by adding increasing final concentrations of methacholine (10^-7 M, 10^-6 M and 10^-5 M) in volumes of 100 μL. The bath solutions were replaced at least three times between doses.
After the methacholine dose-response series was completed, a test compound dose response curve was initiated by the same procedure used for the methacholine dose-response series, with at least five concentrations of test compound within the range of 10^-10 M to 10^-4 M. The tissues were washed repeatedly between doses, and the studies were completed by recording the contractile response to 10^-5 M methacholine to ascertain integrity of the muscle preparation. Contractile responses were expressed as percent of maximal contraction. The concentration of test compound which produces half of the maximal contraction (ED50 value) and the negative logarithm of the ED50 value (PED50) were estimated from the dose-response curves.

| SMILES | MIC [1] [µg/mL] | MIC [2] [µg/mL] | MIC [3] [µg/mL] | MIC (Pseudomonas cepacia 2961) [µg/mL] | MIC [4] [µg/mL] | MIC [5] [µg/mL] | MIC [6] [µg/mL] | MIC [7] [µg/mL] | MIC [8] [µg/mL] | MIC [9] [µg/mL] | MIC [10] [µg/mL] | MIC [11] [µg/mL] | MIC [12] [µg/mL] | MIC [13] [µg/mL] | MIC (Escherichia coli SS) [µg/mL] | MIC [14] [µg/mL] | MIC [15] [µg/mL] | MIC (Escherichia coli KNK 437) [µg/mL] | MIC [16] [µg/mL] | MIC [17] [µg/mL] | other results |
| --- | --- | --- | --- | --- | --- | --- | --- | --- | --- | --- | --- | --- | --- | --- | --- | --- | --- | --- | --- | --- | --- |
| CC[C@H]1OC(=O)[C@H](C)[C@@H](O[C@H]2C[C@@](C)(OC)C[C@H](C)O2)[C@H](C)[C@@H](O[C@@H]2O[C@H](C)C[C@H](N(C)CC)[C@H]2O)[C@@]2(C)C[C@H](C)C(O2)[C@H](C)[C@@H](O)[C@]1(C)O [Example 11, 9-deoxo-3'-N-desmethyl-4",6-dideoxy-8-epi-3'-N-ethyl-6,9-epoxyerythromycin A] | > 100 | 25 (≈ 34.9 µM) | 25 (≈ 34.9 µM) | > 100 | 50 (≈ 69.8 µM) | > 100 | > 100 | 50 (≈ 69.8 µM) | > 100 | 100 (≈ 140 µM) | > 100 | > 100 | > 100 | 50 (≈ 69.8 µM) | > 100 | 6.2 (≈ 8.66 µM) | 25 (≈ 34.9 µM) | > 100 | > 100 | > 100 | MIC [18]: > 100 µg/mL; MIC [19]: 100 µg/mL (≈ 140 µM); MIC (Escherichia coli H560): > 100 µg/mL; MIC [20]: > 100 µg/mL; MIC [21]: > 100 µg/mL; MIC (Escherichia coli DC-2): > 100 µg/mL; MIC [22]: > 100 µg/mL; MIC [23]: 100 µg/mL (≈ 140 µM); MIC (Escherichia coli JUHL): > 100 µg/mL; MIC [24]: > 100 µg/mL; MIC [25]: 100 µg/mL (≈ 140 µM); MIC [26]: > 100 µg/mL; EC50 [27]: 0.00288 µM; Relative Potency [27]: 490 |
| CC[C@H]1OC(=O)[C@H](C)[C@@H](O[C@H]2C[C@@](C)(OC)C[C@H](C)O2)[C@H](C)[C@@H](O[C@@H]2O[C@H](C)C[C@H](N(C)CC)[C@H]2O)[C@@]2(C)C[C@@H](C)C(O2)[C@H](C)[C@@H](O)[C@]1(C)O [Example 15, 9-deoxo-3'-N-desmethyl-4",6-dideoxy-6,9-epoxy-3'-N-ethylerythromycin A] | > 100 | 25 (≈ 34.9 µM) | 25 (≈ 34.9 µM) | > 100 | 6.2 (≈ 8.66 µM) | 100 (≈ 140 µM) | > 100 | 50 (≈ 69.8 µM) | > 100 | > 100 | > 100 | > 100 | > 100 | 50 (≈ 69.8 µM) | 100 (≈ 140 µM) | 6.2 (≈ 8.66 µM) | 25 (≈ 34.9 µM) | > 100 | > 100 | > 100 | MIC [18]: > 100 µg/mL; MIC [19]: > 100 µg/mL; MIC (Escherichia coli H560): > 100 µg/mL; MIC [20]: > 100 µg/mL; MIC [21]: > 100 µg/mL; MIC (Escherichia coli DC-2): > 100 µg/mL; MIC [22]: > 100 µg/mL; MIC [23]: > 100 µg/mL; MIC (Escherichia coli JUHL): > 100 µg/mL; MIC [24]: > 100 µg/mL; MIC [25]: 100 µg/mL (≈ 140 µM); MIC [26]: > 100 µg/mL; EC50 [27]: 0.0234 µM; Relative Potency [27]: 60 |

Source: patent US5654411A, “Process for preparing 4-deoxyerythromycin derivatives” (Abbott Laboratories, priority 1995, dated 1997)
